The source made the active and inactive calls. No rule for the calls is given here. Bounds are passed on as bounds.

The target in the assay is Signal transducer and activator of transcription 1-alpha/beta (Homo sapiens) (UniProt P42224). Briefly: STAT1 signalling inhibitors, dose response, cell-based, NIH 3T3, luciferase reporter (AID 1396). Particulars: NIH 3T3 fibroblasts. A general note: Reporter assays use an easily measured gene product as a stand-in for the process of interest.
Sequence of Signal transducer and activator of transcription 1-alpha/beta (Homo sapiens) (P42224 whole entry, looked up): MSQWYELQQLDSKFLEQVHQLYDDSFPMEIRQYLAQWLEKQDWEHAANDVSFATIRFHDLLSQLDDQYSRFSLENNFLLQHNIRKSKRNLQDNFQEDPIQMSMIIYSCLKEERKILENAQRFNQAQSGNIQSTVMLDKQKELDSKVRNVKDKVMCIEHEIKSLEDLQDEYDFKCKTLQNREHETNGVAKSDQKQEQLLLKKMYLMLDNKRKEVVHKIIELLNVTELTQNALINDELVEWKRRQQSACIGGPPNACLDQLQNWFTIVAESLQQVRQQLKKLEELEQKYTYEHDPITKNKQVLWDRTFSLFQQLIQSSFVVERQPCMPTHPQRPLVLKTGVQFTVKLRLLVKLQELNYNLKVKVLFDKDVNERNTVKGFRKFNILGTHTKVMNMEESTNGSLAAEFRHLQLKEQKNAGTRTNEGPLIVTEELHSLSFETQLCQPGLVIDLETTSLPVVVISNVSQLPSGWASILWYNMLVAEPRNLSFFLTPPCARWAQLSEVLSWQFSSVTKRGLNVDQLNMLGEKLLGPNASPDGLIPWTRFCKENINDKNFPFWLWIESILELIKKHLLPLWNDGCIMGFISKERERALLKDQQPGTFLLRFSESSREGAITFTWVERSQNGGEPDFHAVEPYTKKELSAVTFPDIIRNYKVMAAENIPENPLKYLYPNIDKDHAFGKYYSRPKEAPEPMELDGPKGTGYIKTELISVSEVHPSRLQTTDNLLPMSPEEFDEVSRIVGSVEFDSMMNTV
For `CCOc1cc(-c2noc(N)c2C#N)cc(OCC)c1OCC`, the IC50 (usually the concentration that inhibits the measured activity by half) was > 55.7 µM (inactive).

Turning to `COc1ccccc1-c1cc(C(F)(F)F)nc(S(C)(=O)=O)n1`, the IC50 is > 18.6 µM (inactive).

For the molecule `Cc1ccc(S(=O)(=O)N2CCN(C(C(=O)Nc3ccc(F)cc3)c3ccccc3)CC2)cc1` (centres undefined), the half-maximal inhibitory concentration (IC50) is 7.87 µM.

`Cn1c(C(=O)N2CCN(c3ccc([N+](=O)[O-])cc3)CC2)cc2c(=O)[nH]c3ccccc3c21`: the IC50 result was “inactive”.

Turning to `CCOC(=O)c1c(C)nc2sc3c(=O)n(-c4ccc(OC)cc4)nnc3c2c1-c1ccc(OC)cc1`, the IC50 entry was “inactive”.

As for `COc1ccc(-c2cc(C(F)(F)F)nc(S(=O)(=O)CCCC(=O)Nc3cccc(O)c3)n2)cc1OC`, the IC50 entry is “inactive”.

Consider `CCN(CC)S(=O)(=O)c1ccc(N2CCOCC2)c(NC(=O)c2cc(-c3ccccn3)nc3ccccc23)c1`, for which the IC50 result was “inactive”.

For the molecule `Cc1ccc(C(=O)Nc2cccc(N(C)S(C)(=O)=O)c2)cc1S(=O)(=O)Nc1ccccc1`, the IC50 entry is “inactive”.

For `COc1ccc(-c2cc(C(F)(F)F)nc(S(=O)(=O)CCCC(=O)Nc3cccnc3Cl)n2)cc1OC`, the IC50 result is “inactive”.

`COc1ccc(CCNC(=O)Cn2c(=O)n(-c3ccc(F)cc3)c(=O)c3sccc32)cc1OC`: the IC50 result is “inactive”.

`COc1ccc(CCNc2ncnc3cc(OC)c(OC)cc23)cc1OC`: the IC50 is > 55.7 µM (inactive).

With `O=C(NNC(=O)c1cccc(S(=O)(=O)N2CCc3ccccc32)c1)c1ccccc1`, the IC50 is > 55.7 µM (inactive).

For `CN1CCN(Cc2nc3ccccc3c(=O)n2Cc2nc(-c3ccccc3F)cs2)CC1`, the IC50 is 4.24 µM.

Consider `CCn1c(O)c(/C=N/NC(=O)c2ccncc2)c(=O)n(CC)c1=S`, for which the IC50 was 4.42 µM.

Take `O=C(CSc1nc2ccccc2c(=O)[nH]1)c1ccc(O)cc1O`: the IC50 is 9.39 µM.

In the case of `Cn1nnnc1Sc1ncnc2scc(-c3ccc(F)cc3)c12`, the IC50 result was “inactive”.

As to `COCC(C)NC(=O)CCS(=O)(=O)c1nc(-c2ccc(OC)cc2)cc(C(F)(F)F)n1` (centres undefined), the IC50 entry is “inactive”.

As for `COc1ccccc1-c1cc(C(F)(F)F)nc(S(=O)(=O)CCCC(=O)Nc2cccnc2Cl)n1`, the IC50 is > 18.6 µM (inactive).

Take `CCOC(=O)N1CCN(C(=O)c2ccc(CSc3ccc(Cl)cc3)cc2)CC1`: the IC50 is > 55.7 µM (inactive).

Regarding `CCn1c(=O)c2cc(C(=O)N3CCCC3)sc2c2ccccc21`, the IC50 entry is “inactive”.

As to `CCOC(=O)N1CCN(C(=O)c2ccc(-n3c(=S)[nH]c4ccccc4c3=O)cc2)CC1`, the IC50 is 3.47 µM.

As for `CS(=O)(=O)c1nc(-c2ccccc2)cc(C(F)(F)F)n1`, the IC50 is 9.97 µM.

Take `CN1CCN(Cc2nc3ccccc3c(=O)n2Cc2nc(-c3ccc4ccccc4c3)cs2)CC1`: the 50% inhibitory concentration (IC50) is 9.58 µM.

For the molecule `O=C(c1ccc2c(c1)N(Cc1ccccc1)C(=O)c1ccccc1S2)N1CCCC1`, the IC50 was 8.43 µM.

As for `Cc1cc(NC(=O)CCCS(=O)(=O)c2nc(-c3cccs3)cc(C(F)(F)F)n2)no1`, the IC50 entry is “inactive”.

As for `O=C(c1ccco1)N1CCN(c2ncnc3c2[nH]c2ccc(Br)cc23)CC1`, the IC50 result was “inactive”.

For the molecule `CCOC(=O)N1CCN(C(=O)/C=C/c2c(C)nn(-c3ccc(F)cc3)c2Cl)CC1`, the IC50 entry was “inactive”.

Take `COc1ccccc1-c1cc(C(F)(F)F)nc(S(=O)(=O)CCCC(=O)N2CCOCC2)n1`: the IC50 is > 6.19 µM (inactive).

`Cc1ccc(-c2csc3ncnc(Sc4nnc(CN5CCCCCC5=O)o4)c23)cc1`: the IC50 is 6.7 µM.

As for `Cc1ccc2[nH]c3c(N4CCN(Cc5ccccc5)CC4)ncnc3c2c1`, the IC50 is > 55.7 µM (inactive).

Consider `Cc1ccccc1NC(=O)C(=Cc1ccc(C(=O)O)cc1)C(=O)Nc1ccccc1C`, for which the IC50 result was “inactive”.

As to `COc1ccc(-n2c(SCc3cccnc3)nc3c(c2=O)SCC3)cc1OC`, the IC50 result is “inactive”.

Take `C#Cc1ccc([C@H]2C=C(C(=O)OCC=C)O[C@@H](OCC)[C@@H]2CCCO)cc1`: the IC50 entry is “inactive”.

For the molecule `Cc1cc(=O)n(C(NC(=O)c2ccccc2)C(=O)c2ccccc2)cn1` (centres undefined), the IC50 was 9.25 µM.

With `O=c1cc(CSc2nc3ccccc3c(=O)[nH]2)c2ccc(O)cc2o1`, the half-maximal inhibitory concentration (IC50) was 4.36 µM.

Take `COC(=O)CCS(=O)(=O)c1nc(-c2ccccc2)cc(C(F)(F)F)n1`: the IC50 entry was “inactive”.

In the case of `COc1ccc(CNc2ncnc3cc(Cl)ccc23)cc1OC`, the IC50 entry is “inactive”.

As to `CCOC(=O)CCS(=O)(=O)c1nc(-c2ccccc2)cc(C(F)(F)F)n1`, the IC50 entry is “inactive”.

As to `CS(=O)(=O)c1nc(-c2ccco2)cc(C(F)(F)F)n1`, the IC50 is > 18.6 µM (inactive).

In the case of `CN1CCN(Cc2nc3ccccc3c(=O)n2Cc2nc(-c3cccc([N+](=O)[O-])c3)cs2)CC1`, the IC50 entry was “inactive”.

On to `Cc1cccc(/C=C(\c2nc3ccccc3[nH]2)S(=O)(=O)c2ccccc2)c1`, for which the IC50 is > 55.7 µM (inactive).

For the molecule `COc1ccccc1CNc1ncnc2cc(Cl)ccc12`, the IC50 is > 55.7 µM (inactive).

In the case of `COC(=O)C1=CN(Cc2ccc(OC)c(OC)c2)C=C(C(=O)OC)C1c1cccs1`, the IC50 entry is “inactive”.

Turning to `O=C(c1ccc(Cl)cc1)N1CCN(c2ccnc3cc(Cl)ccc23)CC1`, the IC50 is > 55.7 µM (inactive).

With `Cc1ccc(-n2nc(C(=O)O)c3ccccc3c2=O)cc1C`, the IC50 was 5.2 µM.

For `Cc1ccccc1-c1noc(N)c1C#N`, the IC50 was > 55.7 µM (inactive).

With `COc1ccc(-c2cc(C(F)(F)F)nc(S(=O)(=O)CCCC(=O)Nc3cc(C)on3)n2)cc1OC`, the IC50 result is “inactive”.

Consider `CS(=O)(=O)c1nc(-c2ccc(F)cc2)cc(C(F)(F)F)n1`, for which the IC50 entry is “inactive”.

Consider `CC1(C)Cc2c(ccc3ccccc23)C2=C(C(=O)N3CCCC3)C(=O)C(=O)N21`, for which the IC50 result was “inactive”.

(Values after PubChem BioAssay AID1396 (The Scripps Research Institute Molecular Screening Center, 2008).)
